3 compounds from patent US20190388510A1, “GLUCAGON-T3 CONJUGATES” (priority 2016, published 2019) can be followed below.

*1 amine or outer side, *2 acyl side, *3 side chain or, on linkers, in order; H or OH if unused. Where a SMILES comes first, the peptide text is derived from it. Where no end group is shown, it is not given here. Side-chain parts run from the residue outwards. [ ]: non-standard residue; d: D form. Thyronine(3,5,3'-I3) = N[C@@H](Cc1cc(I)c(Oc2ccc(O)c(I)c2)c(I)c1)C(=O)O; γGlu = O=C(O)[C@H](CCC(=O)[*:2])N[*:1]

The format of data set [1] is in vitro ADME, human. Here is the method: Each compound was incubated with phosphate buffered saline (PBS, pH=7.4) containing 60% mouse plasma at 37° C. for the duration of the study. At the time points of 6 h, 24 h and 72 h, aliquots of the incubated solutions were withdrawn and diluted with acetonitrile to precipitate the plasma proteins, which were subsequently removed by microcentrifugation at 13,000 rpm for 5 mins. The supernatant was collected and diluted for the analytical reversed-phase HPLC using a linear gradient of buffer B over buffer A (A: 10% aqueous acetonitrile, 0.1% TFA; B: 90% aqueous acetonitrile, 0.1% TFA) on a Zorbax C8 column (4.6×50 mm). RNA-Seq Total RNAs were extracted from frozen liver samples of 4 independent mice per group (vehicle, glucagon only, T3 only, co-administration of glucagon and T3 and glucagon/T3) using TriPure RNA reagent (Sigma). Poly-A isolation, library generation and amplification were performed according to the protocol of the mRNASeq Library Prep Kit (Lexogen). […] Mapping of color-coded reads on the mouse genome (mm10 assembly) was performed using the Lifescope software (Life Technologies). Reads for annotated (Ensembl) genes were counted using HtSeq. […] The synergy score (SS) was calculated as the relative fold change (FC) of (glucagon/T3) compared to the maximum FC of T3 and glucagon alone: SS=FC (glucagon/T3)/max (T3, glucagon). […]

Another data set relates to DIO mice. The data set is described as follows: Cardiac function and histology in DIO mice (echocardiography). Format: in vivo, mouse. The following applies: mouse, in vivo. Here is the method: After chronic treatment, HFHCD-fed or HFHSD-fed C57B16/j male mice (age) were sacrificed with CO2, body weight as well as heart weights and tibia length was taken during necropsy. Livers and whole hearts were embedded in paraffin using a vacuum infiltration processor TissueTEK VIP (Sakura). 3 μm thick slides were cut using a HMS35 rotatory microtome (Zeiss) and H & E staining was performed. For H & E staining, rehydration was done in a decreasing ethanol series, rinsing with tapwater, 2 min Mayers acid Hemalum, bluing in tapwater followed by lmin EosinY (both BioOptica). Dehydration was performed in increasing ethanol series, mounting with Pertex® (Medite GmbH) and coverslips (CarlRoth Chemicals). The slides were evaluated independently using a brightfield microscope (Axioplan, Zeiss). Photos were taken using the Hamamatsu-Nanozoomer HT2.0 in 1.25×, 5×. 20× and 40× magnification. The hepatic steatosis score is defined as the unweighted sum of the three individual scores for steatosis, lobular inflammation and ballooning degeneration. Steatosis is graded by the presence of fat vacuoles in liver cells according to the percentage of affected tissue (0: <5%; 1: 5-33%; 2: 33-66%; 3: >66%). Lobular inflammation is scored by overall assessment of inflammatory foci per 200× field (0: no foci; 1: <2 foci; 2: 2-4 foci; 3: >4 foci). The individual score for ballooning degeneration ranges from 0 (none), 1 (few cells) to 2 (many cells). Total scores range from 0 to 8 with scores <2 considered non-steatosis, 3 considered as borderline steatosis, 4-5 considered onset of steatosis, and >6 considered steatosis. Different to liver and heart, inguinal fat pad samples were embedded in paraffin using Leica embedding machine (EG1150 H) and cut in 5 μm sections using Leica Microtome (RM2255) to perform H&E staining. Samples were stained with hematoxyline for 4 minutes and eosinY for 2 minutes and fixed with Roti®-Histokitt (Carl Roth) before analysing them independently using Microscope Scope A.1 (Zeiss).
For transthoracic echocardiography, a Vevo2100 Imaging System (VisualSonics Inc., Toronto Canada) with a 30 MHz probe was used. All echocardiograms were performed on conscious animals to prevent anesthesia-related impairment of cardiac function as reported previously. Briefly, echocardiograms were obtained in parasternal long and short axis views. For accurate linear measurements of LV internal dimensions (LVID) and […] (LVPW) or septal (IVS) wall thicknesses, M-mode images of the heart in parasternal short-axis view at the level of the papillary muscle were acquired. Qualitative and quantitative measurements were made offline using analytical software (VisualSonics Inc.). Fractional shortening (FS) was calculated as FS %=[(LVIDd−LVIDs)/LVIDd]×100. Ejection fraction (EF) was calculated as EF %=100*((LVvolD−LVvolS)/LVvolD) with LVvol=((7.0/(2.4+LVID)*LVID^3). The corrected LV mass (LV MassCor) was calculated as LV MassCor=0.8(1.053*((LVIDd+LVPWd+IVSd)^3−LVIDd^3)). Heart rate and respiration rate were determined from M-mode tracings, using 3 consecutive intervals.
Gene expression profiling in the liver, iWAT, eWAT, BAT, and heart were performed following treatment of mice according to the treatment paradigms explained in the figure legends for each specific analsysis. For tissue collection, mice were fasted for 4 h and treated with compounds 2 h prior to tissue collection. Gene expression was profiled with quantitative real-time RT-PCR using either TaqMan single probes or with specifically-designed TaqMan low-density array cards. The relative expression of the selected genes was normalized to the reference gene hypoxanthine-guanine phosphoribosyltransferase (Hprt).

Data set [2] relates to HFHSD-fed male C57Bl6j mice. The data set is described as follows: Metabolic efficacy of different glucagon/T3 conjugate versions in HFHSD-fed mice. Format: in vivo, mouse. The following applies: 100 nmol kg-1 daily, 14 days. From the text:
For studies on lipid handling in wildtype mice (Western mice), male C57Bl/6j mice (Jackson Laboratories) were fed a atherogenic Western diet (Research Diets D12079B), which is a high-cholesterol diet (0.21% gm %) with 41% kcal from fat, 43% kcal from carbohydrates, and 17% kcal from protein. For studies on energy metabolism in obese mice (DIO mice), male C57Bl/6j mice (Jackson Laboratories) were fed a diabetogenic diet (Research Diets D12331), which is a high-sucrose diet with 58% kcal from fat 25.5% kcal from carbohydrates, and 16.4% kcal from protein. Both dietary challenges began at 8 weeks of age. HFHSD and HFHCD mice were single- or group-housed on a 12:12-h light-dark cycle at 22° C. with free access to food and water. Mice were maintained under these conditions for a minimum of 16 weeks before initiation of pharmacological studies and were between the ages of 6 months to 12 months old. All injections and tests were performed during the light cycle. Compounds were administered in a vehicle of 1% Tween-80 and 1% DMSO and were given by daily subcutaneous injections at the indicated doses at a volume of 5 μl per g body weight. Mice were randomized and evenly distributed to test groups according to body weight and body composition. If ex vivo molecular biology/histology/biochemistry analyses were performed, the entire group of mice for each treatment was analyzed and scored in a blinded fashion.
Compounds were administered by repeated subcutaneous injections in the middle of the light phase at the indicated doses with the indicated durations. Co-administration of compounds was administered by single formulated injections. Body weights and food intake were measured every day or every other day after the first injection. All studies with wild-type mice were performed with a group size of n=8 or greater using mice on a C57B16j background.
Blood was collected at the indicated times from tail veins or after euthanasia using EDTA-coated microvette tubes (Sarstedt), immediately chilled on ice, centrifuged at 5,000 g and 4° C., and plasma was stored at −80° C. For […] (FPLC) of cholesterol distribution in different lipoprotein fractions, fresh plasma from each treatment group was pooled (n=6-8) and ran over two Superose 6 HR columns in tandem. Cholesterol levels in the collected fractions were determined by colorimetric assay. Plasma insulin and T3 were quantified by an ELISA assay (Ultrasenstive Mouse Insulin ELISA and Rodent T3 ELISA; Alpco). Plasma FGF21 was quantified by an ELISA assay (Mouse FGF21 ELISA; Millipore). Plasma cholesterol, extracted hepatic cholesterol, triglycerides, ALT, and AST were measured using enzymatic assay kits (Thermo Fisher). Plasma creatinine and blood urea nitrogen were measured using enzymatic assay kits (Abcam). Plasma free fatty acids were measured using enzymatic assay kits (Wako). All assays were performed according to the manufacturers' instructions.

For `CSCC[C@H](NC(=O)[C@H](CC(C)C)NC(=O)[C@H](Cc1c[nH]c2ccccc12)NC(=O)[C@H](CCC(N)=O)NC(=O)[C@@H](NC(=O)[C@H](Cc1ccccc1)NC(=O)[C@H](CC(=O)O)NC(=O)[C@H](CCC(N)=O)NC(=O)[C@H](C)NC(=O)[C@H](CCCNC(=N)N)NC(=O)[C@H](CCCNC(=N)N)NC(=O)[C@H](CO)NC(=O)[C@H](CC(=O)O)NC(=O)[C@H](CC(C)C)NC(=O)[C@H](Cc1ccc(O)cc1)NC(=O)[C@H](CCCCN)NC(=O)[C@H](CO)NC(=O)[C@H](Cc1ccc(O)cc1)NC(=O)[C@H](CC(=O)O)NC(=O)[C@H](CO)NC(=O)[C@@H](NC(=O)[C@H](Cc1ccccc1)NC(=O)[C@@H](NC(=O)CNC(=O)[C@H](CCC(N)=O)NC(=O)[C@@H](CO)NC(=O)[C@@H](N)Cc1c[nH]cn1)[C@@H](C)O)[C@@H](C)O)C(C)C)C(=O)N[C@@H](CC(N)=O)C(=O)NCC(=O)NCC(=O)N1CCC[C@H]1C(=O)N[C@@H](CO)C(=O)N[C@@H](CO)C(=O)NCC(=O)N[C@@H](C)C(=O)N1CCC[C@H]1C(=O)N1CCC[C@H]1C(=O)N1CCC[C@H]1C(=O)N[C@@H](CO)C(=O)N[C@@H](CCCCNC(=O)CC[C@H](NC(=O)[C@@H](N)Cc1cc(I)c(Oc2ccc(O)c(I)c2)c(I)c1)C(=O)O)C(N)=O` [glucagon/T3] (H-H[dS]QGTFTSDYSKYLDSRRAQDFVQWLMNGGPSSGAPPPSK([γGlu-Thyronine(3,5,3'-I3)])-NH2; N-terminus assumed), the degradation in plasma entry in data set [1] is “remains intact with nearly no detectable degradation”. For the same compound, in the data set with DIO mice, the “heart histology: thyrotoxic cardiomyopathy” value is listed as “none of these manifestations of thyrotoxicity or thyroid hormone induced cardiomyopathy were detectable”; the “whole heart expression of T3-sensitive genes (Dio2, Ucp2)” value is given as “did not appear to be regulated”; the “whole heart expression of hypertrophic gene markers (Nppa, Nppb)” value was “did not appear to be regulated”.
For “glucagon/iT3: inverted attachment: amine of T3 covalently linked to the glucagon analog through a succinate spacer at Lys40 (H[dS]QGTFTSDYSKYLDSRRAQDFVQWLMNGGPSSGAPPPSK; not fully specified (residue 40))”, in data set [2], the body weight lowering result is on record as “failed to lower body weight”, the cholesterol lowering effect entry is given as “not evident” and the lipid lowering result is reported as “did not lower lipids”.
The matching figures for “glucagon/rT3: reverse T3 (rT3) coupled to the glucagon analog with the same linker chemistry as glucagon/T3 (H[dS]QGTFTSDYSKYLDSRRAQDFVQWLMNGGPSSGAPPPSK; not fully specified (residue 40); also: reverse T3 (rT3) coupled with same linker chemistry as glucagon/T3)”: “failed to lower body weight”, “not evident” and “did not lower lipids”.
